The results in this text go back to US12414927B2, “CXCR5 antagonists and methods of treating diseases or disorders using same” (YALE UNIVERSITY, priority 2020, dated 2025).

The target in data set [1] is T1, human CXCR5 (Homo sapiens, UniProt P32302).
T1 construct: expressed in transfected cells; host or cells: HEK-293 (division-arrested, stably expressing)
T1 sequence (P32302 1-372): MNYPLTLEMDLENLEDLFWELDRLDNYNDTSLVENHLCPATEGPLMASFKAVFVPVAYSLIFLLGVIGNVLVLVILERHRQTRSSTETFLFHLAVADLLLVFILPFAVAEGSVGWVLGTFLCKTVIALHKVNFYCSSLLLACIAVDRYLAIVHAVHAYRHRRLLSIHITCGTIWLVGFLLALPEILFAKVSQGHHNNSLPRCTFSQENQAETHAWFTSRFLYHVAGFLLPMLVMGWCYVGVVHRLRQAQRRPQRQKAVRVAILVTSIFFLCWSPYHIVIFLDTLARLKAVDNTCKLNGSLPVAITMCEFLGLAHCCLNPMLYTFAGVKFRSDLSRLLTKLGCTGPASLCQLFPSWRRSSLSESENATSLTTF
The data set is described as follows: Calcium assay: inhibition of Gaq-mediated Ca2+ flux at an EC80 of CXCL13 agonist. It is filed as cell-based. Conditions: HEK-293 cells transfected with human CXCR5, in the presence or absence of BSA. Here is the method: FIGS. 1A-1B illustrate inhibition of Gaq-mediated Ca^2+ flux for certain compounds of the disclosure. The assays use HEK cells stably expressing functional human CXCR5 and measure inhibition of Gaq-mediated Ca^2+ flux at an EC80 of CXCL13 agonist. Assays were performed in HBSS buffer (FIG. 1A) and HBSS buffer+1% BSA (FIG. 1B); the compounds were active in the presence of the bovine serum albumin, without significant change in an IC50 value. Compound 1 is 2-(3-methyl-2-(2-methylprop-1-en-1-yl)benzamido)-2,3-dihydro-1H-indene-2-carboxylic acid; Compound 2 is 2-(2-isobutyl-3-methylbenzamido)-2,3-dihydro-1H-indene-2-carboxylic acid.
(§1) These assays were performed in division-arrested HEK-293 cells transfected with human CXCR5. The CXCL13 ligand was used as agonist.
The calcium assay allows homogeneous measurement of intracellular calcium changes caused by activation of G-protein coupled receptors or calcium channels.
For adherent cells, plate 50K to 70K cells/well for a 96 well plate and 12K to 20K cells/well for a 384 well plate the day before the experiment. Add 100 μl/well of cell suspension to 96-well plates or 25 μl/well to 384-well plates, allow cells to attach and grow overnight for 16 to 24 hours in cell culture incubators. Prior to dye loading the plate, examine the cells for confluency and overall health.
1. […]

The target in data set [2] is T1, human CXCR5. The data set is described as follows: Cyclic AMP assay: inhibition of Gai-mediated decrease of cAMP at an EC80 of CXCL13. It is filed as cell-based. Particulars: HEK-293 cells transfected with human CXCR5, in the presence or absence of BSA. Here is the method:
FIGS. 2A-2B illustrate inhibition of Gat-mediated decrease of cAMP for certain compounds of the disclosure. The assays use HEK cells stably expressing functional human CXCR5 and measure inhibition of Gat-mediated decrease of cAMP at an EC80 of CXCL13. Assays were performed in HBSS buffer (FIG. 2A) and HBSS buffer+1% BSA (FIG. 2B); the compounds were active in the presence of the bovine serum albumin, without significant change in an IC50 value.
as §1

The test system of data set [3] is Raji cell line. The data set is described as follows: Proliferation of CXCR5-expressing Burkitt's B-cell lymphoma cell line over 7 days. Format: cell-based. Conditions: 7-day period, media containing 5% FBS, various doses, DMSO negative control. The text has this: FIG. 3 illustrates proliferation of the CXCR5-expressing Burkitt's B-cell lymphoma cell line (Raji cell line) over a 7-day period in the media containing 5% FBS in the presence of various doses of Compound 2 or Compound 3 (1-(2-isobutyl-3-methylbenzamido)-2,3-dihydro-1H-indene-1-carboxylic acid). […] DMSO is shown as a negative control.
At this time a Tfh or AITL cell line has not been developed. Thus, a B-cell lymphoma cell line (Raji) was used to determine whether the contemplated compounds can inhibit proliferation. In this experiment, Compound 2 was compared to analogue Compound 3 over a 7-day period (FIG. 3).

The nature of data set [4]: In vivo PK, single dose by IV, PO or IP route. Here is the method:
Three groups of 30 mice (male, CD-1) were dosed via one route per group (PO, IP, or IV). Single dose level was used per route of administration. Dosing level (mg/kg): IV (1 mg/kg); PO (10 mg/kg); and IP (10 mg/kg). […] Blood collections were terminal for each mouse, so triplicate data was obtained for each time point.

Data set [5] can be described thus: In vivo PK, oral doses of 10, 30 and 60 mg/kg. Particulars: oral 10, 30 and 60 mg/kg. More on the design: species or system female CB.17 SCID mice. Here is the method:
FIG. 5 illustrates in vivo PK results for multiple doses of Compound 2 administered orally. 9 female CB.17 SCID mice per group were used except for vehicle control group, where 15 mice were tested. Three drug doses were used (10, 30 and 60 mg/kg), with dosing volume of 10 mL/kg (0.200 mL/20 g mouse) for each dose. Volume was adjusted for body weight, and analysis was run at 6 different time points.
(§2) For suitability of murine AITL patient derived xenografts (PDX) studies, pharmacokinetics (PK) of Compound 2 were determined by IV, oral, and IP administration (FIG. 4). These parameters provided confidence for oral administration studies at different doses and are suitable for further PK studies at 24-hour measurement at different oral doses. The study allowed one to determine the dose that results in a blood level of ˜IC80.

A short description of data set [6]: 10-day oral dosing PK/tolerability study, 30 mg/kg every 12 hours. Format: in vivo, female CB.17 SCID mice. Here is the method:
FIG. 6 illustrates a dosing scheme for oral administration of Compound 2 over 10 days. Female CB.17 SCID mice were dosed according to the table shown: Groups 1-2 were treated with the drug and Group 3 animals were treated with vehicle control. Mice were orally dosed at 30 mg/kg every 12 hours for 10 days. Group 2 (18 animals total, alternating animals) were used for PK blood analysis, and Group 1 (5 animals total) were sacrificed at end point for gross necropsy.
FIGS. 7A-7B illustrate in vivo PK results for multiple doses of Compound 2 (30 mg/kg) administered orally over 10 days. […] No change in slope of decrease indicated no change in rate of metabolism.
as §2

Data set [7] in a line: Preliminary toxicity/tolerability study, 40 mg/kg BID by oral gavage. It is filed as in vivo, NSG mice. Here is the method:
FIG. 8 illustrates absolute body weight for mice treated with Compound 2, 40 mg/kg BID. 5 NSG mice (highly immunodeficient, same strain as in the in vivo efficacy study) were tested. Compound 2 was administered via oral gavage, BID (twice a day) for 14 days. […] Body weight was monitored daily. Mean body weight loss was <4%, confirming tolerability.
It was decided that a dose of 40 mg/kg would be used in the AITL PDX studies (design outlined in FIG. 6). Prior to the study, preliminary 1-week toxicity studies were performed on the NSG immunocompromised mice (NOD/SCID, IL-2R knockout) that would be used on the AITL PDX study (FIG. 8).

Data set [8] concerns patient-derived AITL tissue. Nature of the data set: In vivo efficacy in AITL patient-derived xenograft (human CD45+ cells). The method, then: FIGS. 9A-9B illustrate CD45 levels in bone marrow (FIG. 9A) and peripheral blood (FIG. 9B) of mice treated with Compound 2 or vehicle. […] (NOD/SCID, IL-2R knockout) mice (8 animals per group) were implanted with patient-derived AITL tissue. Compound 2 binds to human but not to murine CXCR5. Animals were treated with vehicle or 40 mg/kg Compound 2 via oral gavage 2×/day. t test comparing all mice at the time of sacrifice was performed to analyze the data. Error bars—SEM.
For in vivo efficacy study, mice were implanted with AITL PDX and engraftment levels were quantified in each animal as circulating human CD45+ cells levels in blood. Dosing began when average engraftment reached 0.13%, and the cohort was treated for 42 days. The mice were monitored weekly for weight loss and daily for any clinical mortality observation. Only 1 treated mouse lost weight (14%) during the first week but gained it back and was otherwise stable similar to the other mice. Blood was drawn at 0, 14, and 28 days after the dosing started, and before euthanasia to measure tumor burden. […] When mice were sacrificed, various organs were removed and stored at −80° C. At the end of the study (42 days of dosing), 3 and 5 mice treated with vehicle or Compound 2, respectively, were still alive. […] The absolute percentage in the blood was 44.5% and 57.6% for treated and untreated mice, respectively.
PDX was implanted into immunocompromised NSG mice.
Starting at around 21 days after implantation, animals are examined for engraftment every 1-2 weeks. Engraftment is determined by measuring human CD45+ cells in blood (flow cytometry).
After engraftment is observed, animals are dosed by oral gavage every 10-14 hours with vehicle (untreated groups) or with compound YU241279 at 40 mg/kg (treated groups).
Animals are evaluated for general health daily and weighed twice per week; circulating human CD45+ cells are measured on days 14 and 28 after treatment initiation to evaluate tumor progression. Based on day 28 analysis, treatment may be extended (the decision to extend the dosing is based on the health status of the vehicle group: CD45 (<50%), lack of morbidity by day 28); Readouts at conclusion of the study include spleen weight, survival, and flow cytometry assessment for human CD45+ cells in blood and bone marrow.

Data set [9] addresses T1, human CXCR5. The data set is described as follows: Binding to human CXCR5.
Data set [10] deals with T2, murine CXCR5 (Mus musculus, UniProt Q04683).
T2 sequence (Q04683 1-374): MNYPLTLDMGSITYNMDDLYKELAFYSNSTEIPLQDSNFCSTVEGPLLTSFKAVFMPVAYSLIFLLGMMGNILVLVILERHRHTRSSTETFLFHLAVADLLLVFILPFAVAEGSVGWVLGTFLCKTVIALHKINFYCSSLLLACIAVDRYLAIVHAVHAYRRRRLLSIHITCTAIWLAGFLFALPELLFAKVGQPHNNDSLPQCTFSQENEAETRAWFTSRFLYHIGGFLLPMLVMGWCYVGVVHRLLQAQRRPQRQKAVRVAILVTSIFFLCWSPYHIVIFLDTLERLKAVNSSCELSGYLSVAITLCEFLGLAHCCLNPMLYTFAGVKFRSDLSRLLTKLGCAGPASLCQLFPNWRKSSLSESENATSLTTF
The data set is described as follows: Binding to murine CXCR5.

[11] abbreviates: 40 mg/kg oral gavage BID for 14 days, 5 NSG mice.
Setting [12] is: 40 mg/ml (so in the source), NSG mice.
[13] abbreviates: at death, 40 mg/kg oral, treated mice.

Entries after “also recorded” stand apart in the source; their conditions may differ.

In the case of `CC(C)=Cc1c(C)cccc1C(=O)NC1(C(=O)O)Cc2ccccc2C1` [Compound 1, 2-(3-methyl-2-(2-methylprop-1-en-1-yl)benzamido)-2,3-dihydro-1H-indene-2-carboxylic acid], the “activity in calcium assay (inhibition of Gaq-mediated Ca2+ flux)” value in data set [1] is reported as “sub-micromolar”. The “activity in cyclic AMP assay (inhibition of decrease of cAMP)” value in [2] is “sub-micromolar”.

In the case of `Cc1cccc(C(=O)NC2(C(=O)O)Cc3ccccc3C2)c1CC(C)C` [Compound 2, 2-(2-isobutyl-3-methylbenzamido)-2,3-dihydro-1H-indene-2-carboxylic acid], the “activity in calcium assay (inhibition of Gaq-mediated Ca2+ flux)” value in data set [1] was “sub-micromolar”. In data set [2], the “activity in cyclic AMP assay (inhibition of decrease of cAMP)” value is on record as “sub-micromolar”. The “proliferation of Raji cells” value in data set [3] is “dose-dependent decrease in proliferation; also recorded: clearly inhibited proliferation”. Further, the clinical observations result in [4] (IV arm subsequently dosed at 0.2 mg/mL delivered at 5 mL/kg) is on record as “without any adverse observations”. Besides, the clinical observations entry in [4] (original IV group, single dose) is “labored breathing, decreased activity, and death”. In data set [4] (pharmacokinetic study in mice), the bioavailability result was “confirmed bioavailability”. Also, the “compound blood level versus compound amount administered” value in data set [5] is “clear increase in compound blood level versus compound amount administered”. The tolerability result in [6] (10-day study at 30 mg/kg oral) was “demonstrated tolerability”. Besides, the health of animals result in data set [6] (oral 30 mg/kg every 12 hours for 10 days, during dosing and for 2 weeks following) is reported as “good health”. The “change of compound metabolism over dosing period” value in [6] (oral 30 mg/kg every 12 hours, 10 days, first two doses versus 20th dose, 30 mg/kg) is “compound metabolism was unchanged; also recorded: no change metabolism”. The “blood levels relative to IC50 between doses” value in [6] (oral 30 mg/kg, 12 hours between doses) is “remained above IC50 for full 12 hours”. For the same molecule, in data set [7] (setting [11]), the “mean body weight loss” value is reported as less than 4% and the morbidity result is listed as “No morbidity was observed”. Further, in [7] (setting [12]), the “body weight gain compared with vehicle” value is given as “did not gain weight as fast as the mice treated with vehicle” and the other abnormalities result is listed as “no other abnormalities observed”. For the same molecule, the “tumor loads in peripheral blood and bone marrow compared to vehicle control” value in data set [8] (40 mg/kg oral gavage 2x/day, at time of sacrifice) is recorded as “Significantly reduced tumor loads”. Moreover, the “mice still alive at the end of the study” value in data set [8] (42 days of dosing, 8 animals per group) came out at 5. Moreover, in data set [8] (setting [13]), the “absolute percentage of human CD45+ in the blood” value is given as 44.5% and the “absolute percentage of human CD45+ in the bone marrow” value is reported as 10.6%. For the same molecule, the “weight loss of the only treated mouse that lost weight” value in data set [8] (first week of dosing, 1 treated mouse, regained afterwards) amounted to 14%. Further, the “binding to human CXCR5” value in [9] is on record as “binds”. Moreover, the “binding to murine CXCR5” value in [10] is given as “not”.

In the case of `Cc1cccc(C(=O)NC2(C(=O)O)CCc3ccccc32)c1CC(C)C` (stereo not shown) [Compound 3, 1-(2-isobutyl-3-methylbenzamido)-2,3-dihydro-1H-indene-1-carboxylic acid], the “proliferation of Raji cells” value in data set [3] is listed as “less potent than Compound 2”.
